From patent US5668133A, “Ophthalmic compositions comprising emedastine and methods for their use” (priority 1995, dated 1997)

Assays:
[1] = tested on: passive anaphylaxis in guinea pig conjunctiva; test: passive conjunctival anaphylaxis, topical ocular antigen challenge, clinical scoring; format: in vivo
Procedure: (§1) Emedastine difumarate was evaluated for its ability to inhibit a passive conjunctival immediate hypersensitivity response following topical ocular administration.
(§2) Guinea pigs (5-8/group) were passively sensitized with anti-ovalbumin serum injected subconjunctivally in one eye. Twenty-four hours after passive sensitization, ovalbumin (OA) was administered either i.v. or topically to the eye.
For assessment of the allergic response following topical ocular antigen challenge, 20 μL of ovalbumin (1.0 wt %) was administered to the sensitized eye 5 minutes after topical ocular application of emedastine difumarate or saline (20 μL). Thirty minutes later, the reaction was quantitated, using the following scoring scheme (maximum score per animal=10):
Congestion (refers to palpebral and bulbar conjunctiva):
3--Dark red conjunctiva; petechiae present
1--Any swelling on lower lid only
2--Swelling upper and lower lid, lids partially closed
3--Lids everted, very swollen, lids at least half closed
4--Swelling of both lids and side of face
1--Glazed, glassy appearance
2--Moist lids and surrounding hair
3--Moist lids and surrounding hair, thicker mucous-like

[2] = tested on: passive anaphylaxis in guinea pig conjunctiva; test: passive conjunctival anaphylaxis, i.v. antigen challenge; format: in vivo
Procedure: Male Dunkin Hartley Viral Antibody Free outbred guinea pigs (Charles River Labs, Portage, Mich.), weighing approximately 250-350 grams (6/group) were injected intravenously (i.v.) via the marginal ear vein with 1.0 mL of Evans Blue dye (1.0 mg/mL). Forty-five (45) minutes post dye injection, 20 μL of test compound or saline vehicle was applied topically to one eye of each experimental animal. Thirty minutes following topical drug application, the guinea pigs were anesthetized and challenged subconjunctivally with histamine (300 ng/10 μL). Responses were quantitated as described by Yanni et al. in Int. Arch. Allergy Immunol., 101:102-106 (1993). Response scores from the treated groups were then compared with scores obtained in the saline-treated group using Dunnett's t test (Dunnett C. W., "A multiple comparison procedure for comparing treatments with a control." J. Am. Stat. Assoc. 50:1096-1121(1955)). Regression analysis was used to determine relative potency (Bliss, C. and E. Gjorgy. In Vitamin Methods, Vol. 2, pp. 445-610, Academic Press, Inc., New York, 1951.).
as §1, §2
The allergic response following i.v. antigen challenge was assessed as follows: thirty minutes prior to challenge, animals received 20 μL of emedastine difumarate or saline applied topically to the eye. Guinea pigs were then challenged i.v. via the marginal ear vein with 1.0 mL of a solution containing 100 μg of OA and 1 mg of Evans Blue dye. Responses were quantitated as previously described in Example 2.

[3] = topical ocular antigen challenge, 5 min before challenge
[4] = i.v. antigen challenge, 30 min before challenge

## CCOCCn1c(N2CCCN(C)CC2)nc2ccccc21 [Emedastine Difumarate, 1-(2-ethoxyethyl)-2-(4-methyl-1-homopiperazinyl)-benzimidazole]
[1]; 5 minutes before topical ocular antigen challenge
  reduction in severity of the hypersensitivity response: concentration-dependent reductions in the severity of the hypersensitivity response
[1]; concentrations ranging from 0.0001% to 0.1%
  attenuation of the hypersensitivity response: Significant attenuation
[1]; topical ocular antigen challenge, 0.0001 wt %, 5 min before challenge
  % Change: -29%
[1]; topical ocular antigen challenge, 0.001 wt %, 5 min before challenge
  % Change: -45%
[1]; topical ocular antigen challenge, 0.01 wt %, 5 min before challenge
  % Change: -51%
[1]; topical ocular antigen challenge, 0.1 wt %, 5 min before challenge
  % Change: -67%
[1]; [3]
  ED50: 0.0046 wt %
  ED50 (text): 0.0046%
[2]; 0.001% and 0.01% solutions, 30 minutes before i.v. antigen challenge
  reduction of the allergic response: significant reductions of the allergic response
[2]; i.v. antigen challenge, 0.0001 wt %, 30 min before challenge
  % Change: -41%
[2]; i.v. antigen challenge, 0.001 wt %, 30 min before challenge
  % Change: -66%
[2]; i.v. antigen challenge, 0.01 wt %, 30 min before challenge
  % Change: -96%
[2]; [4]
  ED50: 0.00022 wt %
  ED50 (text): 0.00022%
